Data set [1] concerns the target T1, Amine oxidase [flavin-containing] B (Homo sapiens, UniProt P27338).
T1 sequence (P27338 whole entry): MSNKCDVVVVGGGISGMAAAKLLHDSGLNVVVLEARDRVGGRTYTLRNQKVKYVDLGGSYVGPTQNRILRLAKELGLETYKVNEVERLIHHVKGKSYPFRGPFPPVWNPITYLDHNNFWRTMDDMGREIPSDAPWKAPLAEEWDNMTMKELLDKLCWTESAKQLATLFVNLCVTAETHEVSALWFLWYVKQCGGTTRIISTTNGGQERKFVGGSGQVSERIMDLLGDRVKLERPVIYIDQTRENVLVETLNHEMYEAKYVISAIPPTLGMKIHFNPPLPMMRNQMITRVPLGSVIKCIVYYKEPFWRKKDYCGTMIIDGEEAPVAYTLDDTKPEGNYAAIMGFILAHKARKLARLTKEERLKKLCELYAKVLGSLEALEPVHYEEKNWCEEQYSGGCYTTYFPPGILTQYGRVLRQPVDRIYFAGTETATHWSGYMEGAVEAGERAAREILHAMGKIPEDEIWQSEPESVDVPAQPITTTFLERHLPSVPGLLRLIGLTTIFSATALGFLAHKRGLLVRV
The data set is described as follows: Inhibition of human recombinant MAOB expressed in baculovirus infected BTI-TN-5B1-4 insect cells assessed as hydrogen peroxide production from p-tyramine at 1 mM after 15 mins by amplex red assay. The settings on record: bti-tn-5b1-4, 0.25 h, 1000 µM.

Data set [2] has as its target T1, Amine oxidase [flavin-containing] B. The data set is described as follows: biochemical. In kind it is cell-based, BTI-TN-5B1-4.
Description: Inhibition of human recombinant MAOB expressed in baculovirus infected BTI-TN-5B1-4 insect cells assessed as hydrogen peroxide production from p-tyramine after 15 mins by amplex red assay
Data set [3] concerns the target T2, Amine oxidase [flavin-containing] A (Homo sapiens, UniProt P21397).
T2 sequence (P21397 whole entry): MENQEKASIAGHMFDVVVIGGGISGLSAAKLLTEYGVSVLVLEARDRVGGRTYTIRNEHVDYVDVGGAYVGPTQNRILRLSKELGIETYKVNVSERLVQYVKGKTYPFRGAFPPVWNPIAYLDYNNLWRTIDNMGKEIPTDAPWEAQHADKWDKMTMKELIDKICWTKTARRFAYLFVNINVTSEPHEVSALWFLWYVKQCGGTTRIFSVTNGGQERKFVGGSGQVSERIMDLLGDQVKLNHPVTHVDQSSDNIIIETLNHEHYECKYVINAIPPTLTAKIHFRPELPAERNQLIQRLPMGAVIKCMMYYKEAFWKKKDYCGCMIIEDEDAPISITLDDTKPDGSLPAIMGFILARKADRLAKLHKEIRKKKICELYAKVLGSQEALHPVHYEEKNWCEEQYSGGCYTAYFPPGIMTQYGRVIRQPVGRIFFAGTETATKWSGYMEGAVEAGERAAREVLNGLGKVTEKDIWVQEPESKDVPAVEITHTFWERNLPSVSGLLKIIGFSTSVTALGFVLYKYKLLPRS
The data set is described as follows: Inhibition of human recombinant MAOA expressed in baculovirus infected BTI-TN-5B1-4 insect cells assessed as hydrogen peroxide production from p-tyramine after 15 mins by amplex red assay.

For the next data set, the species on record is Homo sapiens. Put plainly: Selectivity index, ratio of IC50 for human recombinant MAO-B to IC50 for human recombinant MAO-A.

Experimental findings from ChEMBL document CHEMBL1914329, “2D MI-DRAGON: a new predictor for protein-ligands interactions and theoretic-experimental studies of US FDA drug-target network, oxoisoaporphine inhibitors for MAO-A and human parasite proteins” (Eur J Med Chem, 2011) are described below.

`O=C(NCCN1CCOCC1)c1ccc(Cl)cc1` [MOCLOBEMIDE]: the “inhibition (INH)” value in data set [1] is “Not Active”.

As to `COc1cc2ccnc3c2c(c1O)C(=O)c1ccccc1-3`, the values for the 50% inhibitory concentration (IC50) in data set [2] and in data set [3] were over 100 µM and 1.23 µM, respectively. The Ratio IC50 in the data set listed under Homo sapiens was over 81.

On to `O=C1c2ccccc2-c2nccc3cccc1c23`, for which the results for the 50% inhibitory concentration (IC50) in data set [2] and in data set [3] were over 100 µM and 0.72 µM, respectively. The Ratio IC50 in the data set listed under Homo sapiens is over 139.

`COc1cc2c3c(c1)C(=O)c1ccccc1C3=NCC2`: the IC50 in data set [2] is over 100 µM; in data set [3], 0.014 µM. The Ratio IC50 in the data set filed under Homo sapiens is over 7140.

Turning to `O=C1c2ccccc2C2=NCCc3cccc1c32`, the IC50 is over 100 µM in data set [2] and 27.3 µM in data set [3]. The Ratio IC50 in the data set filed under Homo sapiens is over 3.7.

As to `COc1cc2c3c(nccc3c1)-c1ccccc1C2=O`, the IC50 in data set [2] is over 100 µM.

In the case of `O=C1c2ccccc2-c2nccc3cc(O)cc1c23`, the IC50 is over 100 µM in data set [2] and 0.035 µM in data set [3]. Also, the Ratio IC50 in the data set listed under Homo sapiens is over 2860.

As for `COc1cc2c3c(c1O)C(=O)c1ccccc1C3=NCC2`, the IC50 in data set [2] was over 100 µM; in data set [3], 0.044 µM. Further, the Ratio IC50 in the data set listed under Homo sapiens is over 2270.

With `COC1=Cc2ccnc3c2c(cc2ccccc23)C1=O`, the IC50 was over 100 µM in data set [2] and 0.013 µM in data set [3]. In addition, in the data set filed under Homo sapiens, the Ratio IC50 was over 7690.

Take `COc1cc2c3c(c1)C(O)c1ccccc1C3NCC2` (centres undefined): the figures for the IC50 in data set [2] and in data set [3] were over 50 µM and 9.81 µM, respectively. Moreover, in the data set listed under Homo sapiens, the Ratio IC50 is over 5.1.

Consider `COc1cc2c3c(c1)C(=O)C1=C(CCCC1)C3=NCC2`, for which the results for the IC50 in data set [2] and in data set [3] were over 50 µM and 2.12 µM, respectively. Also, the Ratio IC50 in the data set listed under Homo sapiens is over 24.
